Reference: patent publication US20040087651A1, “Monoterpene as a chemopreventive agent for regression of mammalian nervous system cell tumors, use of monoterpene for causing regression and inhibition of nervous system cell tumors, and method for administration of monoterpene perillyl alcohol” (priority 2001, published 2004)

Tests used:
glial cell lines = test: Inhibition of protein expression in glial cell lines; assay type: cell-based; settings: POH treatment in glial cell lines (FIG. 10: A 172)
rats [1] = settings: perillyl alcohol diet; cited from earlier work
glial cell C6 = test: Effect on glial cell C6 growth; assay type: cell-based, rats; settings: various concentrations (FIG. 2)
A 172 cells = test: Studies of cell morphology; assay type: cell-based, human; settings: POH 0,3%
Description: (§1) Studies of cell morphology:_A 172 and U 87 cells were cultivated in plates of 6 wells. After 24 hours, perillyl alcohol was added to a final concentration of 0.3% (v/v). Monolayers of cells treated with POH were photographed by an optic microscope inverted NIKON TMS, to register morphological changes induced by the treatment. All studies of cell morphology were performed at least three times to ensure accurate interpretation.

U 87 cells = test: Studies of cell morphology; assay type: cell-based, human; settings: POH 0,3%
Description: as §1

human glioma U 87 cells = test: Cellular Proliferation Assay (MTT); assay type: cell-based
Description: (§2) a—Cell Culture: Human malignant gliomas U 87 and A 172 cells were obtained from the American Type Culture Collection (ATCC), and grown as monolayers on the at 37° C., in Dulbecco's Modified Eagle Medium supplemented with 0.2 mM nonessential amino acids, 10% (v/v) fetal calf serum, penicillin (100 UI/mL), streptomycin ([…]) and amphotericin B (Fungizone, […]). For subcultures, confluent monolayers were gently washed with Dulbecco's phosphate—buffered saline (PBS, pH 7.2), and after a short exposure to trypsin, the cells were transferred to a new bottle containing complete growth media.
(§3) Cellular Proliferation Assay: the target cells (human glioma U 87 and A 172) were cultivated in plates of 96 wells at a concentration of 5.0×10^5 cells by well. After the cellular adherence the cells were placed in multiple POH dilutions, in triplicates, having as positive control cells growing with detergent Tween 20. The negative control were cells growing without any additive. Concentrations varying from 30%, 3%, 0.03%, 0.003%, 0.0003% (v/v) were applied and after 24 hours of incubation 1.0 mg of hydrogen acceptor 3 (4,5 dimethylthiazol-2yi)-2-5 diphenyltetrazolium bromide (MTT) solution was added in each well, and the culture was incubated for additional 3 hours. […] An ELISA reader with 490 nm filter was used to read the results.

human glioma A 172 cells = test: Cellular Proliferation Assay (MTT); assay type: cell-based
Description: as §2, §3

A 172 glial cells = test: Chorioallantoic Membrane (CAM) Assay, anti-metastatic activity; assay type: in vivo, human; settings: A 172 cells exposed to POH 0,3% to 0,03% for 2 hours prior to inoculation in chick embryo chorioallantoic membrane
Description: (§4) After determination of cell concentration applying a Neubauer Chamber, 2×10^6 cells were incubated for 2 hours at 37° C., in D-MEM medium containing concentrations varying from […] or 3% of perillyl alcohol (Sigma), prior to inoculation on CAM.
(§5) b—Chorioallantoic Membrane (CAM) Assay: seven days old fertilized specific pathogen free chick eggs were used in this study. By transillumination in a dark chamber, the egg air camera was marked on the eggshell. The following procedures were done under aseptic conditions, in the laminar chamber. An opening was made in the upper part and another in the lateral part of the eggshell, and the air camera was mechanically displaced to the upper side by applying negative pressure at the lateral opening. Both openings were sealed. In the upper part of the egg, a small window was made. On the upper CAM, the cells were inoculated, with a sterile pipette. Eggs 1, 2 and 3 received 2×10^6 cells previously treated with POH (0.03, 0.3 and 3%, respectively) diluted D-MEM medium. Egg 4 received 2×10^6 untreated cells in D-MEM medium. Egg 5 was used as negative control (no cells inoculated). The windows were sealed and the eggs were kept at 37° C. and 60% humidity, in the horizontal position, without agitation, for seven days
(§6) Opening of the eggs. […]

U 87 glial cells = test: as above; assay type: in vivo, human; settings: U 87 cells exposed to POH 0,3% to 0,03% for 2 hours prior to inoculation in chick embryo chorioallantoic membrane
Description: as §4, §5, §6

rats [2] = settings: rat, in vivo

In the case of `C=C(C)[C@@H]1CC=C(CO)CC1` [perillyl alcohol, p-metha, 1,7-diene-6-ol or 4-isopropenyl-cyclohexanecarbinol], the protein expression (glial cell lines) is given as “inhibition protein expression”, the maximum dose tolerated (rats [1]) is given as 2,5% and the cell growth (glial cell C6) is given as “significantly inhibited cell growth in a dose dependent manner”. For the same compound, the cell morphology (A 172 cells) was “changes in morphology, indicative of cellular differentiation”, the cell morphology (U 87 cells) was “changes in morphology, indicative of cellular differentiation” and the “proliferation of glioma cell lines” value (human glioma U 87 cells; U 87, POH 30%, 3%, 0,3% and 0,03%, preliminary in vitro studies) was “inhibits the proliferation”. For the same compound, the cell growth (human glioma U 87 cells; U87, various concentrations (FIG. 3)) was “significantly inhibited cell growth in a dose dependent manner”, the “proliferation of glioma cell lines” value (human glioma A 172 cells; POH 30%, 3%, 0,3% and 0,03%, preliminary in vitro studies) was “inhibits the proliferation” and the cell growth (human glioma A 172 cells; various concentrations (FIG. 4)) was “significantly inhibited cell growth in a dose dependent manner”. For the same compound, the anti-metastatic activity (A 172 glial cells) was “anti metastatic activity”, the anti-metastatic activity (U 87 glial cells) was “anti metastatic activity” and the “toxicity in tissues of lung, liver, and brain” value (rats [2]) was “no toxicity”.
